Legend:
[1] = target: Tyrosine-protein kinase Blk (Homo sapiens) (UniProt P51451); assay: Selectivity interaction (KinomeScan (DiscoverX)) EUB0000229b BLK; settings: at 10 µM
[2] = target: Dual specificity mitogen-activated protein kinase kinase 1 (Homo sapiens, UniProt Q02750); assay: Selectivity interaction (Kinase panel (DSF assay)) EUB0001559a MAP2K1
[3] = target: DNA-dependent protein kinase catalytic subunit (Homo sapiens) (UniProt P78527); assay: Selectivity interaction (Kinase panel (Z-LYTE Assay)) EUB0001632a PRKDC; settings: at 10 µM
[4] = target: cAMP-dependent protein kinase catalytic subunit beta (Homo sapiens) (UniProt P22694); assay: Selectivity interaction (LanthaScreen Eu Kinase Binding Assay) EUB0001632a PRKACB; settings: at 10 µM
[5] = target: Serine/threonine-protein kinase 16 (Homo sapiens, UniProt O75716); assay: Selectivity interaction (ActivX KiNativ screen (kinase selectivity in THP-1 cell lysates)) EUB0000639a STK16; type: subcellular; settings: lysate
Serine/threonine-protein kinase 16, sequence (O75716 whole entry): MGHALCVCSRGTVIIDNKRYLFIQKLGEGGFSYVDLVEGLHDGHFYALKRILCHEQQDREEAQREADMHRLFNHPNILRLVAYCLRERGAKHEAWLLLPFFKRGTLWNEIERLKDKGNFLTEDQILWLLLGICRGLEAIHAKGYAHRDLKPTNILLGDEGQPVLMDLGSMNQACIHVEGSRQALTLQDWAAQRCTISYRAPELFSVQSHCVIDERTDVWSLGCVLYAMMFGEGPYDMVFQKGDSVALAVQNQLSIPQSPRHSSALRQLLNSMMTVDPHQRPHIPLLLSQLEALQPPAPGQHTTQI

[6] = target: Protein-tyrosine kinase 2-beta (Homo sapiens) (UniProt Q14289); assay: Selectivity interaction (ActivX KiNativ screen (kinase selectivity in THP-1 cell lysates)) EUB0000639a PTK2B; type: subcellular; settings: lysate, at 1 µM
Protein-tyrosine kinase 2-beta (Homo sapiens), sequence (Q14289 whole entry, looked up): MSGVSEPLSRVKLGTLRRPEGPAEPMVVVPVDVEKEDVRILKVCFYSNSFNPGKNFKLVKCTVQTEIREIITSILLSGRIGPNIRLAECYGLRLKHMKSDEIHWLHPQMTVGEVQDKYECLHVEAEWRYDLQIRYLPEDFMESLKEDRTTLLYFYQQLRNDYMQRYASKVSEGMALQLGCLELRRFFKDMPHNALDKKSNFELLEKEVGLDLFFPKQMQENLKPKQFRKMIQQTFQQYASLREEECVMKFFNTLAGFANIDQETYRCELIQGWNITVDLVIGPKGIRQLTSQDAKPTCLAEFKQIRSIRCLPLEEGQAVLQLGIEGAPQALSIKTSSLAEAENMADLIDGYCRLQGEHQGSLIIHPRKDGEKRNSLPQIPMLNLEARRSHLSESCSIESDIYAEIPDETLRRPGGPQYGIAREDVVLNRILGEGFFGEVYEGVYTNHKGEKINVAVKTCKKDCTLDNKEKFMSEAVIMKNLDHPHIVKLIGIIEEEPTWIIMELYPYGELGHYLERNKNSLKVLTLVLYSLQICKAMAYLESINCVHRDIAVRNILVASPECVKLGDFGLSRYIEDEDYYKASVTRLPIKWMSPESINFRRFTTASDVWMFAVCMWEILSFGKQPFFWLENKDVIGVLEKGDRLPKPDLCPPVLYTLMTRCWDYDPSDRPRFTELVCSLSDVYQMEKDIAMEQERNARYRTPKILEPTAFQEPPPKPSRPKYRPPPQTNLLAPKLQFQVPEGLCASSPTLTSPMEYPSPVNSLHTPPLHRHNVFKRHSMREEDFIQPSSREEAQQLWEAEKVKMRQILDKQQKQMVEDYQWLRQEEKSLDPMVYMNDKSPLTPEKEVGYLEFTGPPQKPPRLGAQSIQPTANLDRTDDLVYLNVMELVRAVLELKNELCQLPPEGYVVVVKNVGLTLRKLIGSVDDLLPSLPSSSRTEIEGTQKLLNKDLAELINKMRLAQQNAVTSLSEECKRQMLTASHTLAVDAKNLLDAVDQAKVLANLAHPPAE

[7] = system: Epidermal growth factor receptor (Homo sapiens), P00533 [UNDEFINED MUTATION]; assay: Selectivity interaction (KinomeScan (DiscoverX)) EUB0001049a EGFR; settings: at 1 µM
[8] = target: SRSF protein kinase 1 (Homo sapiens, UniProt Q96SB4); assay: Selectivity interaction (KinomeScan (DiscoverX)) EUB0000695a SRPK1; settings: at 100 nM
[9] = target: Ribosomal protein S6 kinase alpha-4 (Homo sapiens) (UniProt O75676); assay: Selectivity interaction (KinomeScan (DiscoverX)) EUB0000695a RPS6KA4; settings: at 100 nM
Ribosomal protein S6 kinase alpha-4 (Homo sapiens), sequence (O75676 whole entry, looked up): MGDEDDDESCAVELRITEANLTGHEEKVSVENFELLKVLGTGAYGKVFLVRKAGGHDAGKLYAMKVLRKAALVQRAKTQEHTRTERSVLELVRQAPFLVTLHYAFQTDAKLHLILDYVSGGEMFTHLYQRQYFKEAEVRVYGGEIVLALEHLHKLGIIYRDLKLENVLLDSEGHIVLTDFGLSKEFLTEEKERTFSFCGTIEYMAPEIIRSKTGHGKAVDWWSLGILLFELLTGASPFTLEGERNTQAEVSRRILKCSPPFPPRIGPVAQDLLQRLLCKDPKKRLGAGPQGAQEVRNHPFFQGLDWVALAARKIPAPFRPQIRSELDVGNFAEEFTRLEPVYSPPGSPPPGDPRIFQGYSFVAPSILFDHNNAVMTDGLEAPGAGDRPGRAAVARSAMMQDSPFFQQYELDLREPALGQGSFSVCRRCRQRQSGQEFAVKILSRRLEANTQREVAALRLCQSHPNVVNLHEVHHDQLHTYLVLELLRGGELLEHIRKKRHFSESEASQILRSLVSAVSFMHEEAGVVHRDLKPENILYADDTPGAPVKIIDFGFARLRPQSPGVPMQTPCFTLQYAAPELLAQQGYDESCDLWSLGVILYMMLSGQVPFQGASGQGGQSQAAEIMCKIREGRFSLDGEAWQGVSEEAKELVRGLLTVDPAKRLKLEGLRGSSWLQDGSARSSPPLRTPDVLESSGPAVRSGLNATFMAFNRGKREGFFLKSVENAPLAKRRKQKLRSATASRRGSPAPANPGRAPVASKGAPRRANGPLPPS

[10] = target: T1, Serine/threonine-protein kinase Nek1 (Homo sapiens) (UniProt Q96PY6); assay: Selectivity interaction (Kinase panel (Eurofins)) EUB0001564a NEK1; settings: at 1 µM
T1 sequence (whole entry): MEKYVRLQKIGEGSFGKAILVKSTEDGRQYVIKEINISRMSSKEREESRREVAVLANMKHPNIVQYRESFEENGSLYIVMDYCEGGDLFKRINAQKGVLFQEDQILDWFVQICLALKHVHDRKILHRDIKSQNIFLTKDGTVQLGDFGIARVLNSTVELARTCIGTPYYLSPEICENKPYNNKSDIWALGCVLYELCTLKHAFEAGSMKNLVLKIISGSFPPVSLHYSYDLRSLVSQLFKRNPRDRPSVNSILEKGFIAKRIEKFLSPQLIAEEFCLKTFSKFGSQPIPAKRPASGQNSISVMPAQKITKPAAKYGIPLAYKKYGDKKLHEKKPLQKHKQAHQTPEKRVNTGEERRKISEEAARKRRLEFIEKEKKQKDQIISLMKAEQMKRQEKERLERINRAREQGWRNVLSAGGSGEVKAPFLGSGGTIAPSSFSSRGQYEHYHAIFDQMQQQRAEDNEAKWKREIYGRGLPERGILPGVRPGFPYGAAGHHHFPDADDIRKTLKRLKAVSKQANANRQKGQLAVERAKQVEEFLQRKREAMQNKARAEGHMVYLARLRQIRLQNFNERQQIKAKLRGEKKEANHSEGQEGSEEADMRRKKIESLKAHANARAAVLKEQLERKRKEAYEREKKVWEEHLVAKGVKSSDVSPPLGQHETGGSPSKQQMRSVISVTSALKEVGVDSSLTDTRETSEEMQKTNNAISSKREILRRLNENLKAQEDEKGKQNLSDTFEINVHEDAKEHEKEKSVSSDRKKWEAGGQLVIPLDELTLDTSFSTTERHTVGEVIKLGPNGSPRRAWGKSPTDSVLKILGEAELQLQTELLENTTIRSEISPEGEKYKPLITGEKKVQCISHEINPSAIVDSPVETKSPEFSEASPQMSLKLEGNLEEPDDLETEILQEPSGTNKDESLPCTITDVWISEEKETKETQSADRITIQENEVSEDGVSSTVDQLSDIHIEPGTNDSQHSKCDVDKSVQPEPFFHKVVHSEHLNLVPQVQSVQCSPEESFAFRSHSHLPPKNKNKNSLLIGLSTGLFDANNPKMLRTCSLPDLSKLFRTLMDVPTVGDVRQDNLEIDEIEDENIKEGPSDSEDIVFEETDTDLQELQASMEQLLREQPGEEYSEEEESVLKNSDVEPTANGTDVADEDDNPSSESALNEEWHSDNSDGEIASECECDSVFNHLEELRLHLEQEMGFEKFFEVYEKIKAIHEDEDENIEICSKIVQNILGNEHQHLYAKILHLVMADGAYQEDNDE

[11] = target: Serine/threonine-protein kinase PAK 1 (Homo sapiens) (UniProt Q13153); assay: Selectivity interaction (Ambit KINOMEscan and KiNATiv profiling in Jurkat cells) EUB0000090b PAK1; type: cell-based; settings: at 1 µM
Serine/threonine-protein kinase PAK 1 (Homo sapiens), sequence (Q13153 whole entry): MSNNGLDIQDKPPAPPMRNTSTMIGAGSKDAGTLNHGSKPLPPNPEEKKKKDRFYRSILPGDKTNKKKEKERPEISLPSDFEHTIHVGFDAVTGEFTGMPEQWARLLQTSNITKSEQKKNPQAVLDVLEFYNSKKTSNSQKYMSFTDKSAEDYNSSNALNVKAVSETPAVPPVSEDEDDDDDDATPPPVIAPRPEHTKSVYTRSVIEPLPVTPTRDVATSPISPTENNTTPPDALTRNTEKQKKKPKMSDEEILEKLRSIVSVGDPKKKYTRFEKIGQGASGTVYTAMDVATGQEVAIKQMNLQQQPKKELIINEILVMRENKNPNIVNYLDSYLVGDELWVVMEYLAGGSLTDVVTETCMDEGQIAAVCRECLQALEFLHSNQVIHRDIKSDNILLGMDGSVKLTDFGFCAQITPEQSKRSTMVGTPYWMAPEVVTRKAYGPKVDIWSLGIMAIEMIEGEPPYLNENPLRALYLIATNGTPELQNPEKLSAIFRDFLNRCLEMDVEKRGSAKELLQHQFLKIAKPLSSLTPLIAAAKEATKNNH

[12] = target: Glycogen synthase kinase-3 alpha (Homo sapiens, UniProt P49840); assay: Selectivity interaction (Ambit KINOMEscan and KiNATiv profiling in Jurkat cells) EUB0000090b GSK3A; type: cell-based; settings: at 1 µM
[13] = target: Receptor tyrosine-protein kinase erbB-4 (Homo sapiens, UniProt Q15303); assay: Selectivity interaction (Ambit KINOMEscan and KiNATiv profiling in Jurkat cells) EUB0000090b ERBB4; type: cell-based; settings: at 1 µM
[14] = target: T2, Testis-specific serine/threonine-protein kinase 2 (Homo sapiens) (UniProt Q96PF2); assay: Selectivity interaction (Kinase screening (Nanosyn)) EUB0000604a TSSK2
T2 sequence (whole entry): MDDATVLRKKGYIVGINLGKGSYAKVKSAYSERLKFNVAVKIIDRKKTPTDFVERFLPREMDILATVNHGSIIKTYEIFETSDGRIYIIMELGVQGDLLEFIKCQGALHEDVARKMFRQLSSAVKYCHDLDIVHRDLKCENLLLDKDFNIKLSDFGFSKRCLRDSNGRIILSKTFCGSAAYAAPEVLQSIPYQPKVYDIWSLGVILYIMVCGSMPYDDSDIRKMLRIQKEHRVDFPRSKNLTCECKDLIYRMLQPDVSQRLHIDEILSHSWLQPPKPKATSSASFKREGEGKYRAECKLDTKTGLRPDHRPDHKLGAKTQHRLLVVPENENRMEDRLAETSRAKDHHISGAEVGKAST

[15] = target: Myosin-IIIa (Homo sapiens) (UniProt Q8NEV4); assay: Selectivity interaction (KinomeScan (DiscoverX)) EUB0001619a MYO3A; settings: at 1 µM
Myosin-IIIa (Homo sapiens), sequence (Q8NEV4 whole entry): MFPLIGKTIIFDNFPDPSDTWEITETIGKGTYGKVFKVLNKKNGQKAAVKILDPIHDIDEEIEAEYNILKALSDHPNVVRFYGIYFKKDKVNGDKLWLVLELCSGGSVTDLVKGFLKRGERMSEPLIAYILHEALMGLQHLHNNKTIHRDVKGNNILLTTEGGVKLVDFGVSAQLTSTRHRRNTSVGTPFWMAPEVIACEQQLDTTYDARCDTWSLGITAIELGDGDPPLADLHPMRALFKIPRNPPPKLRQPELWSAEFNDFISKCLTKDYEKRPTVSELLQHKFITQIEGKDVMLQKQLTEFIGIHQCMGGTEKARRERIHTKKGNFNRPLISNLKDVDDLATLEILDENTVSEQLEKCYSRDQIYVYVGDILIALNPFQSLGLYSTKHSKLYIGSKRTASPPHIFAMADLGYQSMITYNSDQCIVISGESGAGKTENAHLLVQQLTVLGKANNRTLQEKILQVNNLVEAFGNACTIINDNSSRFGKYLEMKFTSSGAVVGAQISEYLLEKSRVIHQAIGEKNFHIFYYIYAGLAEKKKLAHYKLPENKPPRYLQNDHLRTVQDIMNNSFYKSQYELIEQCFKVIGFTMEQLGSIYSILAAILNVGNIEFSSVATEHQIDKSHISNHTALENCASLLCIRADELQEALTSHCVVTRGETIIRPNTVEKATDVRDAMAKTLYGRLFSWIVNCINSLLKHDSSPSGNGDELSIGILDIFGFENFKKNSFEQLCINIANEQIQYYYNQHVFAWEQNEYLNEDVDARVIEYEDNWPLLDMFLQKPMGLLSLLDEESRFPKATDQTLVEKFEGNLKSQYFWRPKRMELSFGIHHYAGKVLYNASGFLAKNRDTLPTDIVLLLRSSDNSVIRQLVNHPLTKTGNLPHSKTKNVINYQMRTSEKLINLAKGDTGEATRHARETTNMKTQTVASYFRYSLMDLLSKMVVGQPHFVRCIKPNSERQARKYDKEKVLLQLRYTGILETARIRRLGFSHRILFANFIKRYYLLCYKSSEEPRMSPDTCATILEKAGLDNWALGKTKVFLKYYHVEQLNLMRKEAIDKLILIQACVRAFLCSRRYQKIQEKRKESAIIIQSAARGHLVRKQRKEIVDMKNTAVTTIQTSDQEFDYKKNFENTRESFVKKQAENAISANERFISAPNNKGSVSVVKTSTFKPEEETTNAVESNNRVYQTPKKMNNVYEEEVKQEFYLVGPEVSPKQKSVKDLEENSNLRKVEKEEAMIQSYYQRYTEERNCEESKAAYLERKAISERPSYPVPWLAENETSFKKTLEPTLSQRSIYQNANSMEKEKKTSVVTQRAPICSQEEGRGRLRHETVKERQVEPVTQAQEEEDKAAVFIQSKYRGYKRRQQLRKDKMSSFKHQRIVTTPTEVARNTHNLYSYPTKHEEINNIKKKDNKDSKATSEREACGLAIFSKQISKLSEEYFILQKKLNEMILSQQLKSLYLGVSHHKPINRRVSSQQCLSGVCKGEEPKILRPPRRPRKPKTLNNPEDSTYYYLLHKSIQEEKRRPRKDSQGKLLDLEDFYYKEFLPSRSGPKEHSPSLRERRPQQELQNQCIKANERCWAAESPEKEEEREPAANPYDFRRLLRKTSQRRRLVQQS

Dual specificity mitogen-activated protein kinase kinase 1, sequence (Q02750 whole entry): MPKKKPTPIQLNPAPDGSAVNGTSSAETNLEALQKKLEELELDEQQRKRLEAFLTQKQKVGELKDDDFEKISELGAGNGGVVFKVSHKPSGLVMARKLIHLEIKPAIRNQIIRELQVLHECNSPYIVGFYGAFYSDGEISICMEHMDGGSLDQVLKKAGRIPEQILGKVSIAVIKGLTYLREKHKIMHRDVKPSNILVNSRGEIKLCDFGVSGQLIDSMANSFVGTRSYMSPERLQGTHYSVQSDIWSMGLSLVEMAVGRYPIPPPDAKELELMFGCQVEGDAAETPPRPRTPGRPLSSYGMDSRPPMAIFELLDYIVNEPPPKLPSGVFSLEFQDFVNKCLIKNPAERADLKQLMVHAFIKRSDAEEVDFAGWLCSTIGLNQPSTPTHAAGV

In the case of `COc1cc(N(C)c2ccnc3ccc(C(F)(F)F)cc23)cc(OC)c1OC`, the % binding [1] is reported as 100%.

In the case of `CN(C(=O)c1cnn2cccnc12)c1cc2c(cc1N1CCOCC1)C(=O)N(C[C@@H](F)C(C)(C)O)C2`, the dTM [2] is reported as -0.8 K.

Compound `Cn1cc(-n2cnc3c(NCc4nc5cc(Cl)c(Cl)cc5[nH]4)nc(N4CCOCC4)nc32)cn1` has a % of control [3] of 11.8% and a % of inhibition [4] of 4.17%.

In the case of `CC[C@@H]1[C@H](F)C(=O)N[C@@H]1COc1nccc2cc(C(N)=O)c(OC)cc12` [ZIMLOVISERTIB], the % of inhibition ([5]; at 0.01 µM) is reported as 10.7%, the % of inhibition ([5]; at 0.04 µM) is reported as 27.8% and the % of inhibition ([5]; at 0.2 µM) is reported as 22.2%. For the same compound, the % of inhibition ([5]; at 1 µM) was 67.2%, the % of inhibition ([5]; at 5 µM) was over 94% and the % of inhibition [6] was -3.6%.

`COc1cc(Nc2nc(C)cc(-c3cnn4nc(OC)ccc34)n2)cc(C(F)(F)F)c1` gave a % of control [7] of 100%.

`Cc1cc(F)c(C(=O)Nc2cccc(-c3nncn3C(C)C)n2)cc1-n1cnc(C2CC2)c1` gave a % of control [8] of 91% and a % of control [9] of 100%.

`CC[C@@H](Nc1c(C#N)c(-c2ccc(-c3cccc(C)c3F)cc2)nc2cnccc12)C(=O)O` [BAY-091] was tested, and the % of inhibition [10] was 24.4%.

In the case of `CN(C)C/C=C/C(=O)Nc1ccc(C(=O)N2CCCC(Nc3ncc(Cl)c(-c4c[nH]c5ccccc45)n3)C2)cc1` (centres undefined), the % of control [11] is reported as 83%, the % of control [12] is reported as 5.7% and the % of control [13] is reported as 96%.

For `Cc1cnc(Nc2ccc(F)cc2Cl)nc1-c1c[nH]c(C(=O)N[C@H](CO)c2cccc(Cl)c2)c1`, the % of inhibition [14] was 3%.

`N#Cc1cccc(-c2c[nH]c3ncnc(N4CCOCC4)c23)c1` showed a % of control [15] of 94%.
